This is an account of results in the SangsterLogP compilation.

A word on the logP: it is a log measure of how a compound divides between an organic and an aqueous phase. Low readings indicate a more hydrophilic compound, high ones a more lipophilic compound.

On to `C=C(C)C1(CCCC)C(=O)NC(=O)NC1=O`, for which the logP turned out to be 1.65.
`CC=C(C(C)C)C1(C)C(=O)NC(=O)NC1=O` gave a logP of 1.45.
In turn, `CC/C=C(\C)C1(C)C(=O)NC(=O)NC1=O` yielded a logP of 1.15.
The compound `C=C(C)C1(CCCCC)C(=O)NC(=O)NC1=O` displayed a logP of 2.15.
The compound `CC=C(CCCC)C1(CCC)C(=O)NC(=O)NC1=O` showed a logP of 2.65.
Consider `C=C(C)C1(CCC)C(=O)NC(=O)NC1=O`, for which the logP is 1.15.
Regarding `CC/C=C(\C)C1(C(C)C)C(=O)NC(=O)NC1=O`, the logP was determined as 1.95.
Regarding `C/C=C(\C)C1(C)C(=O)NC(=O)NC1=O`, the logP was found to be 0.65.
Turning to `CC=C(CCC)C1(CC)C(=O)NC(=O)NC1=O`, the logP was 2.15.
With `C=C(C)C1(CC)C(=O)NC(=O)NC1=O`, the logP worked out at 0.65.
As for `C=C(C)C1(C)C(=O)NC(=O)NC1=O`, the logP was found to be 0.15.
In the case of `C/C=C(\CC)C1(CCC)C(=O)NC(=O)NC1=O` it was 2.15; in that of `C=C(C)C1(CCC(C)C)C(=O)NC(=O)NC1=O`, 1.95; in that of `C/C=C(/C)C1(CC)C(=O)NC(=O)NC1=O`, 1.15.
In the case of `C=C(C)C1(CC(C)C)C(=O)NC(=O)NC1=O`, the logP came out at 1.45.
Compound `CCCC=C(CC)C1(CC)C(=O)NC(=O)NC1=O` displayed a logP of 2.65.
In the case of `CC=C(CCC)C1(C)C(=O)NC(=O)NC1=O` it was 1.65; in that of `C/C=C(\CC)C1(CC)C(=O)NC(=O)NC1=O`, 1.65.
As for `C/C=C(\CC)C1(C)C(=O)NC(=O)NC1=O`, the logP came out at 1.15.
Compound `C/C=C(\CC)C1(C(C)C)C(=O)NC(=O)NC1=O` came in with a logP of 1.95.
`C/C=C(\C)C1(CCC)C(=O)NC(=O)NC1=O` displayed a logP of 1.65.
`CC=C(CCCC)C1(C)C(=O)NC(=O)NC1=O` came in with a logP of 2.15.
In the case of `CC/C=C(/C)C1(CCC)C(=O)NC(=O)NC1=O`, the logP worked out at 2.15.
The compound `CC/C=C(\C)C1(CC)C(=O)NC(=O)NC1=O` gave a logP of 1.65.
As to `C=CCC1(/C(C)=C/C)C(=O)NC(=O)NC1=O`, the logP turned out to be 2.15.
